According to the supplement of paper PMC11451515:

Tested on: P12-Ichikawa
Assay: cell viability relative to DMSO control; higher = less cytotoxic
Details: 48 h
Method in brief: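 Viability values are per-plate percentages of DMSO wells, with background from cell-free wells. Library compounds in DMSO were pin-dosed, in an 11-point threefold series from 47 μM to 0.79 nM, onto NOMO1 or SEM (500 cells/well) or P12-Ichikawa (1000 cells/well) leukemia cells in 1536-well plates (5 μl). Those cells had been adapted for at least four passages in each medium, and CellTiter-Glo One luminescence was read after 48 h at 37°C.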

[1] = HPLM + 10% dialyzed FBS, 0.000781 µM
[2] = HPLM + 10% dialyzed FBS, 0.00234 µM
[3] = HPLM + 10% dialyzed FBS, 0.00702 µM
[4] = HPLM + 10% dialyzed FBS, 0.0211 µM
[5] = HPLM + 10% dialyzed FBS, 0.0632 µM
[6] = HPLM + 10% dialyzed FBS, 0.19 µM
[7] = HPLM + 10% dialyzed FBS, 0.569 µM
[8] = HPLM + 10% dialyzed FBS, 1.71 µM
[9] = HPLM + 10% dialyzed FBS, 5.12 µM
[10] = HPLM + 10% dialyzed FBS, 15.4 µM
[11] = HPLM + 10% dialyzed FBS, 46.1 µM
[12] = RPMI 5 mM glucose + 10% FBS, 0.000781 µM
[13] = RPMI 5 mM glucose + 10% FBS, 0.00234 µM
[14] = RPMI 5 mM glucose + 10% FBS, 0.00702 µM
[15] = RPMI 5 mM glucose + 10% FBS, 0.0211 µM
[16] = RPMI 5 mM glucose + 10% FBS, 0.0632 µM
[17] = RPMI 5 mM glucose + 10% FBS, 0.19 µM
[18] = RPMI 5 mM glucose + 10% FBS, 0.569 µM
[19] = RPMI 5 mM glucose + 10% FBS, 1.71 µM
[20] = RPMI 5 mM glucose + 10% FBS, 5.12 µM
[21] = RPMI 5 mM glucose + 10% FBS, 15.4 µM
[22] = RPMI 5 mM glucose + 10% FBS, 46.1 µM
[23] = RPMI 5 mM glucose + 10% dialyzed FBS, 0.000781 µM
[24] = RPMI 5 mM glucose + 10% dialyzed FBS, 0.00234 µM
[25] = RPMI 5 mM glucose + 10% dialyzed FBS, 0.00702 µM
[26] = RPMI 5 mM glucose + 10% dialyzed FBS, 0.0211 µM
[27] = RPMI 5 mM glucose + 10% dialyzed FBS, 0.0632 µM
[28] = RPMI 5 mM glucose + 10% dialyzed FBS, 0.19 µM
[29] = RPMI 5 mM glucose + 10% dialyzed FBS, 0.569 µM
[30] = RPMI 5 mM glucose + 10% dialyzed FBS, 1.71 µM
[31] = RPMI 5 mM glucose + 10% dialyzed FBS, 5.12 µM
[32] = RPMI 5 mM glucose + 10% dialyzed FBS, 15.4 µM
[33] = RPMI 5 mM glucose + 10% dialyzed FBS, 46.1 µM

| SMILES | cell viability [1] [%] | cell viability [2] [%] | cell viability [3] [%] | cell viability [4] [%] | cell viability [5] [%] | cell viability [6] [%] | cell viability [7] [%] | cell viability [8] [%] | cell viability [9] [%] | cell viability [10] [%] | cell viability [11] [%] | cell viability [12] [%] | cell viability [13] [%] | cell viability [14] [%] | cell viability [15] [%] | cell viability [16] [%] | cell viability [17] [%] | cell viability [18] [%] | cell viability [19] [%] | cell viability [20] [%] | cell viability [21] [%] | cell viability [22] [%] | cell viability [23] [%] | cell viability [24] [%] | cell viability [25] [%] | cell viability [26] [%] | cell viability [27] [%] | cell viability [28] [%] | cell viability [29] [%] | cell viability [30] [%] | cell viability [31] [%] | cell viability [32] [%] | cell viability [33] [%] |
| --- | --- | --- | --- | --- | --- | --- | --- | --- | --- | --- | --- | --- | --- | --- | --- | --- | --- | --- | --- | --- | --- | --- | --- | --- | --- | --- | --- | --- | --- | --- | --- | --- | --- |
| C[C@H]1C[C@H]2[C@@H]3CC[C@](O)(C(=O)CO)[C@@]3(C)C[C@H](O)[C@@H]2[C@@]\4(C)/C=C\C(=O)\C=C14 | 96.9 | 97.4 | 96.9 | 91.7 | 98.7 | 88.1 | 64.1 | 64.9 | 57.3 | 57.6 | 56.9 | 91.2 | 96.3 | 95.4 | 96.8 | 78.5 | 80 | 55.2 | 50.4 | 47.6 | 48.2 | 45 | 85.3 | 88.2 | 84.1 | 93.5 | 88.2 | 74.2 | 53.3 | 40.6 | 40.6 | 38.6 | 34.9 |
| CCOC(=O)N1c2ccc(C(F)(F)F)cc2[C@@H](N(Cc2cc(C(F)(F)F)cc(C(F)(F)F)c2)C(=O)OC)C[C@H]1CC | 127 | 120 | 116 | 119 | 119 | 114 | 121 | 110 | 116 | 110 | 106 | 131 | 123 | 122 | 132 | 133 | 116 | 127 | 121 | 124 | 103 | 111 | 115 | 128 | 117 | 118 | 120 | 127 | 121 | 114 | 123 | 112 | 104 |
| N#CC(c1ccnc(NCCc2cccnc2)n1)c1nc2ccccc2s1 (centres undefined) | 115 | 128 | 120 | 127 | 127 | 134 | 131 | 121 | 141 | 141 | 118 | – | – | – | – | – | – | – | – | – | – | – | 122 | 136 | 122 | 145 | 142 | 152 | 151 | 148 | 140 | 133 | 120 |
| COc1cccc2c1C(=O)c1c(O)c3c(c(O)c1C2=O)C[C@@](O)(C(=O)CO)C[C@@H]3O[C@H]1C[C@H](N)[C@H](O[C@H]2CCCCO2)[C@H](C)O1 | 122 | 127 | 123 | 123 | 115 | 125 | 121 | 92.3 | 9.81 | 113 | 99 | 122 | 122 | 120 | 127 | 117 | 122 | 106 | 70.2 | 6.23 | 108 | 94.6 | 125 | 121 | 102 | 128 | 117 | 114 | 97.5 | 71.5 | 7.42 | 93 | 84.7 |
| CN(C)c1ccc2nc3ccc(N(C)C)cc3[s+]c2c1 | 99.5 | 105 | 109 | 105 | 109 | 113 | 111 | 102 | 59.7 | 10.9 | 3.04 | 95.6 | 106 | 96.7 | 109 | 110 | 124 | 115 | 98.5 | 60.3 | 8 | 2.12 | 91.4 | 106 | 98.2 | 96.4 | 104 | 116 | 114 | 94.9 | 71.3 | 12.8 | 2.16 |
| Cc1c(-c2cccc3c(CCCOc4cccc5ccccc45)c(C(=O)O)n(Cc4cccnc4)c23)c(COc2ccc(N3CCN([S+](=O)([O-])N(C)C)CC3)cc2)nn1C | 96 | 94.3 | 87.4 | 93.2 | 97.4 | 91.6 | 88.5 | 85.8 | 91 | 80.3 | 71.6 | 92.1 | 87.7 | 94.1 | 85.6 | 87.2 | 92.7 | 84.2 | 88 | 91.2 | 87 | 74 | 91.7 | 93.4 | 91.4 | 95.3 | 93 | 88.2 | 82.8 | 90.8 | 81.3 | 82.4 | 67 |
| Cc1ccccc1C(OCCN(C)C)c1ccccc1 (centres undefined) | 106 | 118 | 117 | 110 | 113 | 118 | 107 | 129 | 127 | 123 | 123 | – | – | – | – | – | – | – | – | – | – | – | 114 | 126 | 118 | 123 | 121 | 113 | 124 | 131 | 124 | 128 | 116 |
